Experimental data reported in patent US7074789B2, “Kinase inhibitors” (Amgen Inc., priority 1999, dated 2006).

Columns and labels:
Type in all cases: biochemical
EGFR = target: T1, EGFR (Homo sapiens, UniProt P00533); test: Kinase inhibition assay (33P transfer), EGFR; conditions: Table 2, kinase inhibition class; read-out: EGFR-1
T1 construct: Kinases are expressed as either kinase domains or full length constructs; made in house
Outline: (§1)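 Activity read as 33P incorporation from ATP into poly(Glu,Tyr) 4:1 or poly(Arg,Ser) 3:1 substrate bound to microtiter plates, measured by scintillation after acid washing. Enzymes were affinity-purified GST or polyHis fusions (kinase domain or full length) from E. coli or baculovirus; IC50 = 50% reduction in labelled phosphate.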

Itk = target: T2, Itk (Homo sapiens, UniProt Q08881); test: Kinase inhibition assay (33P transfer), Itk; conditions: read-out: Itk-1
T2 construct: Kinases are expressed as either kinase domains or full length constructs; made in house
T2 sequence (Q08881 1-620): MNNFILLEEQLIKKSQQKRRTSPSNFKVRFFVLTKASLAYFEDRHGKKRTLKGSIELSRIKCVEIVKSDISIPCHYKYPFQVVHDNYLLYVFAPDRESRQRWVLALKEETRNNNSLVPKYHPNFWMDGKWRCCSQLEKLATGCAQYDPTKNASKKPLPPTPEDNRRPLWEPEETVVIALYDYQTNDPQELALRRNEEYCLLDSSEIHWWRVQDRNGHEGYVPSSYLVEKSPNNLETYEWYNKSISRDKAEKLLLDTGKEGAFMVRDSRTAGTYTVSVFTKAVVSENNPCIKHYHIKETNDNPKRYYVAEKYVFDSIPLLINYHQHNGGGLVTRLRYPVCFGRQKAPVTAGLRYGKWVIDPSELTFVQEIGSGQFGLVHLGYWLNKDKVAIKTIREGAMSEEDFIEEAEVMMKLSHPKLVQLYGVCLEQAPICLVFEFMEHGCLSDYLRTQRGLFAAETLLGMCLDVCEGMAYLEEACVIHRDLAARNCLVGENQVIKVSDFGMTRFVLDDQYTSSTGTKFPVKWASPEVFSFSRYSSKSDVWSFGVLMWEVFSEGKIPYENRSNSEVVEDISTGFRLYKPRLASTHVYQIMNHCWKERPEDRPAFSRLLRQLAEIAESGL
Outline: as §1

c-Met = target: T3, c-Met (Homo sapiens, UniProt P08581); test: Kinase inhibition assay (33P transfer), c-Met; conditions: Table 2, kinase inhibition class; read-out: Met-1
T3 construct: Kinases are expressed as either kinase domains or full length constructs; made in house
Outline: as §1

Zap-70 = target: T4, Zap-70 (Homo sapiens, UniProt P43403); test: Kinase inhibition assay (33P transfer), Zap-70; conditions: read-out: Zap-1
T4 construct: Kinases are expressed as either kinase domains or full length constructs; made in house
T4 sequence (P43403 1-619): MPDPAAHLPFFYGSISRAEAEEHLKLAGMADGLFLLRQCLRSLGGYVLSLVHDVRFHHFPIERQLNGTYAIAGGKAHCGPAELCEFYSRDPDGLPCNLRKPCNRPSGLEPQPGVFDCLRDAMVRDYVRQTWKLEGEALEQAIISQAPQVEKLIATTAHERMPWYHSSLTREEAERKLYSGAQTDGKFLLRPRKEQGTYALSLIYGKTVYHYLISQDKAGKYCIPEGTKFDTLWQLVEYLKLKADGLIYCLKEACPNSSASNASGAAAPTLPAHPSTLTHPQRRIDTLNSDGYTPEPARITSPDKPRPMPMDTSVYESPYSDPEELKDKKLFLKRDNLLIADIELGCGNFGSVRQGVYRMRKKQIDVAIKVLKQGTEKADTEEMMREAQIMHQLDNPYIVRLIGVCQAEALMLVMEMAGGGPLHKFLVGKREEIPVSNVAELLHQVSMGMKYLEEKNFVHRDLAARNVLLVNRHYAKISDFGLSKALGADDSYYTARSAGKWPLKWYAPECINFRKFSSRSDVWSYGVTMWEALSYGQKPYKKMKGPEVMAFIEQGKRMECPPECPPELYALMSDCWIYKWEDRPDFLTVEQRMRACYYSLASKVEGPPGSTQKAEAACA
Outline: (§2)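 Recombinant kinase-domain or full-length fusion proteins (GST or His tag) served as enzyme. Substrate poly(Glu,Tyr) 4:1 or poly(Arg,Ser) 3:1 was bound to the plate; transferred 33P was read by liquid scintillation following acid washing.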

IGFR-1 = target: T5, IGFR-1 (Homo sapiens, UniProt P08069); test: Kinase inhibition assay, IGFR-1 (Table 2); conditions: Table 2, kinase inhibition class
T5 construct: Kinases are expressed as either kinase domains or full length constructs; made in house
T5 sequence (P08069 31-1367): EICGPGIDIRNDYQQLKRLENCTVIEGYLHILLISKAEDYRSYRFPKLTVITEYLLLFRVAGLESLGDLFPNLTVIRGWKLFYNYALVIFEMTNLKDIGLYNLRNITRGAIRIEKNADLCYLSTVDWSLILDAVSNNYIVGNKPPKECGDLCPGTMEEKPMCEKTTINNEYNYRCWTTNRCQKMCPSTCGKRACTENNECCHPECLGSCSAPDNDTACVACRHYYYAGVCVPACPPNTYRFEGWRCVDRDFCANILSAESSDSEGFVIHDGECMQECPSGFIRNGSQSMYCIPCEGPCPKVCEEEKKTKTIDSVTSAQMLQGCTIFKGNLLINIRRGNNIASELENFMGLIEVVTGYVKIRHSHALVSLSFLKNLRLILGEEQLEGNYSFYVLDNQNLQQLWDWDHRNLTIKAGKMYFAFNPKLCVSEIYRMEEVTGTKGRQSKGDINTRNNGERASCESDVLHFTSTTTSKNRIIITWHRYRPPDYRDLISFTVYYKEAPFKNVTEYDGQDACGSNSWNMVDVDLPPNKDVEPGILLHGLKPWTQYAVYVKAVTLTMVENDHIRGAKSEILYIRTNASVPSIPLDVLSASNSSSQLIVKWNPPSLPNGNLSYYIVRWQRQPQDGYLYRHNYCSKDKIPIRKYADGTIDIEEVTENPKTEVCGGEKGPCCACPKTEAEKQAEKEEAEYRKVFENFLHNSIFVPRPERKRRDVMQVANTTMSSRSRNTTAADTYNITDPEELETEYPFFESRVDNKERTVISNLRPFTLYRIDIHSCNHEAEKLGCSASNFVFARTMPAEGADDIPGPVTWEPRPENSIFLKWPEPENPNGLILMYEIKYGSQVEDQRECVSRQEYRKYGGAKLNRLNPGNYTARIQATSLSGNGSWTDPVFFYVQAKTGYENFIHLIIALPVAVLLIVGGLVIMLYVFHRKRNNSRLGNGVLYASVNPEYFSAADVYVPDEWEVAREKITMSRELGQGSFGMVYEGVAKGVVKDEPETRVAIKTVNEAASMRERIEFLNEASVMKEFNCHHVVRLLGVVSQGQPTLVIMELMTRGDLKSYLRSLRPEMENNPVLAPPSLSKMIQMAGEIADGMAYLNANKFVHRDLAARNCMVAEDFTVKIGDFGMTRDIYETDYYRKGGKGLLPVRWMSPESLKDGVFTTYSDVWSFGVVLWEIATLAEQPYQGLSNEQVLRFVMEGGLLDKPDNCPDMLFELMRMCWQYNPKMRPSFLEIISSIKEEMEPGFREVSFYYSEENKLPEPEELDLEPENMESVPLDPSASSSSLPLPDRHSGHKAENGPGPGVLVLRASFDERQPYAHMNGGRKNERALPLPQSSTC

Lck = target: T6, Lck (Homo sapiens, UniProt P06239); test: Kinase inhibition assay (33P transfer), Lck; conditions: read-out: Lck-1
T6 construct: Kinases are expressed as either kinase domains or full length constructs; made in house
T6 sequence (P06239 whole entry, species assumed, the tested form may be a part): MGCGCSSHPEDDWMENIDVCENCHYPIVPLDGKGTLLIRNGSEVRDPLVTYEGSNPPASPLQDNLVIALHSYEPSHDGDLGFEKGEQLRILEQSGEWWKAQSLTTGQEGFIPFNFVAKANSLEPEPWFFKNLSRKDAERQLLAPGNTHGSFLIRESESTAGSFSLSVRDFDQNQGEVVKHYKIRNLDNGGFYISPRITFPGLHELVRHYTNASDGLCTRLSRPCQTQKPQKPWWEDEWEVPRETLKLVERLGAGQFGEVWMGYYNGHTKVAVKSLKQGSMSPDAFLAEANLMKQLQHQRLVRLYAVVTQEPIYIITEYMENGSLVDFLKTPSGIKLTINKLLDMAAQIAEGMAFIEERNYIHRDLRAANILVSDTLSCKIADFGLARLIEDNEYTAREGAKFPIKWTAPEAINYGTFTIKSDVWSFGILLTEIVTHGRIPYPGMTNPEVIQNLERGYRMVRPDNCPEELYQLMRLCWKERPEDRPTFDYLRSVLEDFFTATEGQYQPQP
Outline: as §2

PDGFRB = target: T7, PDGFRB (Homo sapiens, UniProt P09619); test: Kinase inhibition assay (33P transfer), PDGFRB; conditions: read-out: PDGFRB-1
T7 construct: Kinases are expressed as either kinase domains or full length constructs; made in house

ErbB2 = target: T8, ErbB2 (Homo sapiens, UniProt P04626); test: Kinase inhibition assay (33P transfer), ErbB2; conditions: read-out: ErbB2-2
T8 construct: Kinases are expressed as either kinase domains or full length constructs; made in house
T8 sequence (P04626 23-1255, species assumed): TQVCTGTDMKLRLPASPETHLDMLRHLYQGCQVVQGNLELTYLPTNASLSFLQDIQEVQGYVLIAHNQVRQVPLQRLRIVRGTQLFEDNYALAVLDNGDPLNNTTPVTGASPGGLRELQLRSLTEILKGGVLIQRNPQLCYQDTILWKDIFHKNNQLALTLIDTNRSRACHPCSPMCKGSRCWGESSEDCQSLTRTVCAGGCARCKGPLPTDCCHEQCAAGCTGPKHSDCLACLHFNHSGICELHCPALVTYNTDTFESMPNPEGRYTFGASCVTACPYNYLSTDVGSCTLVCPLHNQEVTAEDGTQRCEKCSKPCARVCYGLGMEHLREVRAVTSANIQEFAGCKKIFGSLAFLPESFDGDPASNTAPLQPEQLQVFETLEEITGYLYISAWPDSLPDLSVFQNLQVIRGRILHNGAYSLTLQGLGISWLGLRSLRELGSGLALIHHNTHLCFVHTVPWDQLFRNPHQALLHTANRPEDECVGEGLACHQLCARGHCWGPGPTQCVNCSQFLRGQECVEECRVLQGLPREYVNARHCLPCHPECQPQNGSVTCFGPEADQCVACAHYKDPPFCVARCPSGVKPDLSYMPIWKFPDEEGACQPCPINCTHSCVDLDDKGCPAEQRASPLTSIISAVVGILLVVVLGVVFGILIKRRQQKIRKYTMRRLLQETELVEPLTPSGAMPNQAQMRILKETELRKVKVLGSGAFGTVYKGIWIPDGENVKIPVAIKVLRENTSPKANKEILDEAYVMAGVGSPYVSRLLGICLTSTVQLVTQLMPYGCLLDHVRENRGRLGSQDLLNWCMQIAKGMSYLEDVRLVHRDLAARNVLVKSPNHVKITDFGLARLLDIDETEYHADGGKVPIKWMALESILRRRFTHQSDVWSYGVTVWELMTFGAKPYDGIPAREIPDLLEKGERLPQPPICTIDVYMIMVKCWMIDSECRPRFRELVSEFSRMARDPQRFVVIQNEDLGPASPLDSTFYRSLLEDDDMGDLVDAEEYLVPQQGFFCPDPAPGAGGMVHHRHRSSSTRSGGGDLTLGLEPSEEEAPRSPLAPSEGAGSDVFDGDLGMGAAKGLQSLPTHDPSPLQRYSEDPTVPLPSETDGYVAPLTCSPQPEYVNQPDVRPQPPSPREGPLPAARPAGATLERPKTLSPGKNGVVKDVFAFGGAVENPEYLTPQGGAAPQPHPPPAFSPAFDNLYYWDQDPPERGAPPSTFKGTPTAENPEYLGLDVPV
Outline: as §1

Kdr = target: T9, Kdr (Homo sapiens, UniProt P35968); test: Kinase inhibition assay (33P transfer), Kdr; conditions: read-out: KDR-1
T9 construct: Kinases are expressed as either kinase domains or full length constructs; made in house
T9 sequence (P35968 20-1356, species assumed): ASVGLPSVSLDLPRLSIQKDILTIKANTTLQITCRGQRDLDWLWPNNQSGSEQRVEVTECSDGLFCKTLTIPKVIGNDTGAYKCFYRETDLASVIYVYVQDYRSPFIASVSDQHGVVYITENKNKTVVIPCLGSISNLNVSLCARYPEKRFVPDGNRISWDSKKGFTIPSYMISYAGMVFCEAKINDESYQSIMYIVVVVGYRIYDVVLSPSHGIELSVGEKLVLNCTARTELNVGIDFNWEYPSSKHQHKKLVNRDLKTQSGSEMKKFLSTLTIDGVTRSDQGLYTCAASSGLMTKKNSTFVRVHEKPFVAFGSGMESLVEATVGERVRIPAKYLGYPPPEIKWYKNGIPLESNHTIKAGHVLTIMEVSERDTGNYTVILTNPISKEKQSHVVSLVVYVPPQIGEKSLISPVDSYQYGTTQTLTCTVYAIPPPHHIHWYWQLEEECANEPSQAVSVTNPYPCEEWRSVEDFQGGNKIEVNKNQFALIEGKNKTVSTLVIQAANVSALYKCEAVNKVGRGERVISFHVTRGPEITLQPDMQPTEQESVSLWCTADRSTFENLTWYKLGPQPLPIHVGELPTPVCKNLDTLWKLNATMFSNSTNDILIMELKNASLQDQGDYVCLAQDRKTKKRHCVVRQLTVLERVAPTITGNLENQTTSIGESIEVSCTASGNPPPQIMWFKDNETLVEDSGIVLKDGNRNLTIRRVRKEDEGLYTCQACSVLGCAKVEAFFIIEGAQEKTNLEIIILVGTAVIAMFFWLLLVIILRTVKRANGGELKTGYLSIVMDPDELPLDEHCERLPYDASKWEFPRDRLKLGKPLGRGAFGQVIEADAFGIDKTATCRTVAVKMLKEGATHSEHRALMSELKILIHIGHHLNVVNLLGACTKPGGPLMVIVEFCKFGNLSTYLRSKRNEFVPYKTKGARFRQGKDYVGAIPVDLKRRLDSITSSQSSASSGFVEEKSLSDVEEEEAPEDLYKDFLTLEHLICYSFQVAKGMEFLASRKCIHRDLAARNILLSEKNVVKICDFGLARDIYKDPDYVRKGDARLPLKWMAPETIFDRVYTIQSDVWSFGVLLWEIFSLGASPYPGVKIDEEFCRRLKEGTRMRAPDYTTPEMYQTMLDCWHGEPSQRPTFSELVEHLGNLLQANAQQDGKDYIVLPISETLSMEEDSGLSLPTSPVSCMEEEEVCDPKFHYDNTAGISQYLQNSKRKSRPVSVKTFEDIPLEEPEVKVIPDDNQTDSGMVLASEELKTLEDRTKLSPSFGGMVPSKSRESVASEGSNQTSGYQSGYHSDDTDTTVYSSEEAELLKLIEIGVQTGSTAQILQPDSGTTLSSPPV
Outline: as §2

AKT = target: T10, AKT (Homo sapiens, UniProt Q9Y243); test: Kinase inhibition assay (33P transfer), AKT; conditions: Table 2, kinase inhibition class; read-out: AKT3-1
T10 construct: Kinases are expressed as either kinase domains or full length constructs; made in house
T10 sequence (Q9Y243 whole entry, the tested form may be a part): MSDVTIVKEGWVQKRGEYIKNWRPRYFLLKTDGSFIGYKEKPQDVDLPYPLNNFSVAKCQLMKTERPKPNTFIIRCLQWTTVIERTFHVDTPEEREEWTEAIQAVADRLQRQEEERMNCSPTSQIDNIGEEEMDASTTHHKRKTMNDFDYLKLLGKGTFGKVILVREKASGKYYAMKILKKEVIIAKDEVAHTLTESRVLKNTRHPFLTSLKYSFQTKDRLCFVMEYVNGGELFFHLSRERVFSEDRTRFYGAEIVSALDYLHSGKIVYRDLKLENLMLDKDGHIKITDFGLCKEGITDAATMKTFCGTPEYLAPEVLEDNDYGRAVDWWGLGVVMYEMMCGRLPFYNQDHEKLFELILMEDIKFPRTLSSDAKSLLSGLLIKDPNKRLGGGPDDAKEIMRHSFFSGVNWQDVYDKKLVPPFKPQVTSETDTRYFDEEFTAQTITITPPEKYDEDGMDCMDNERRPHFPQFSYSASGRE
Outline: as §2

SMILES | IC50 (EGFR) | IC50 (Itk) | IC50 (c-Met) | IC50 (Zap-70) | IC50 (IGFR-1) | IC50 (Lck) | IC50 (PDGFRB) | IC50 (ErbB2) | IC50 (Kdr) | IC50 (AKT)
Clc1cccc(Nc2ncnc(Nc3cc(-c4ccccc4)n[nH]3)n2)c1 [Compound 1009] | < 1.1 µM | 1.1 to 6.6 µM | > 12.4 µM | > 12.4 µM | < 1.1 µM | > 12.4 µM | 9.62 to 12.4 µM | > 12.4 µM | > 12.4 µM | > 12.4 µM
Nc1nc2ccccc2n1-c1ncnc(Nc2cccc(CC(=O)NCc3ccccn3)c2)n1 [Compound 956] | > 9.97 µM | 0.886 to 5.32 µM | 7.75 to 9.97 µM | > 9.97 µM | < 0.886 µM | 5.32 to 7.75 µM | 5.32 to 7.75 µM | > 9.97 µM | < 0.886 µM | > 9.97 µM
CC(C)(C)c1cc(Nc2ncnc(Nc3cccc(Cl)c3)n2)[nH]n1 [Compound 1007] | < 1.16 µM | 1.16 to 6.98 µM | 1.16 to 6.98 µM | > 13.1 µM | < 1.16 µM | 1.16 to 6.98 µM | > 13.1 µM | 1.16 to 6.98 µM | 1.16 to 6.98 µM | > 13.1 µM
Cc1ccc2c(c1)CCCN2c1ncnc(Nc2cccc(-c3cnco3)c2)n1 [Compound 774] | < 1.04 µM | 1.04 to 6.24 µM | < 1.04 µM | > 11.7 µM | 6.24 to 9.1 µM | 1.04 to 6.24 µM | < 1.04 µM | < 1.04 µM | 1.04 to 6.24 µM | 1.04 to 6.24 µM
O=C(O)Cc1cccc(Nc2ncnc(-n3c(NCc4ccccc4)nc4ccccc43)n2)c1 [Compound 531] | < 0.886 µM | > 9.97 µM | 7.75 to 9.97 µM | > 9.97 µM | > 9.97 µM | 0.886 to 5.32 µM | < 0.886 µM | < 0.886 µM | < 0.886 µM | > 9.97 µM
Brc1cccc(Nc2ncnc(Nc3cccc(Br)c3)n2)c1 [Compound 539] | < 0.95 µM | 8.31 to 10.7 µM | 8.31 to 10.7 µM | 0.95 to 5.7 µM | 5.7 to 8.31 µM | 8.31 to 10.7 µM | 8.31 to 10.7 µM | 0.95 to 5.7 µM | 0.95 to 5.7 µM | 8.31 to 10.7 µM
COc1cc(Nc2ncnc(Nc3ccc4c(c3)CCC4)n2)cc(OC)c1OC [Compound 629] | 1.02 to 6.1 µM | 1.02 to 6.1 µM | 6.1 to 8.9 µM | 6.1 to 8.9 µM | < 1.02 µM | < 1.02 µM | < 1.02 µM | 1.02 to 6.1 µM | 1.02 to 6.1 µM | > 11.4 µM
COc1ccc(Nc2ncnc(NCCCN3CCN(C)CC3)n2)cc1OC [Compound 786] | > 11.6 µM | > 11.6 µM | > 11.6 µM | > 11.6 µM | > 11.6 µM | > 11.6 µM | > 11.6 µM | > 11.6 µM | > 11.6 µM | > 11.6 µM
Cc1ccc2c(c1)CCCN2c1ncnc(NCC2CCCO2)n1 (stereo not shown) [Compound 759] | > 13.8 µM | > 13.8 µM | > 13.8 µM | > 13.8 µM | > 13.8 µM | > 13.8 µM | > 13.8 µM | > 13.8 µM | > 13.8 µM | > 13.8 µM
COC(=O)Cc1cccc(Nc2ncnc(-n3c(N)nc4ccccc43)n2)c1 [Compound 546] | 6.39 to 9.32 µM | 1.07 to 6.39 µM | 6.39 to 9.32 µM | 9.32 to 12 µM | < 1.07 µM | 1.07 to 6.39 µM | 1.07 to 6.39 µM | 6.39 to 9.32 µM | < 1.07 µM | 9.32 to 12 µM
